Data reported in patent publication US20230233520A1, “COMBINATION THERAPY OF ARTEMISININ-RELATED COMPOUNDS AND HISTONE DEACETYLASE INHIBITORS FOR TREATMENT OF HPV-RELATED BENIGN, PREMALIGNANT, AND MALIGNANT DISEASES” (Georgetown University, priority 2020, published 2023).
Like-named read-outs stand apart in the source and are kept apart here.

What was measured:
Caski cells = assay: […]-GLO cell viability, single drugs (Example 1); assay type: cell-based; settings: Homo sapiens, Ca-Ski, 72 h, read-out: IC50 Confidence Interval
Text: (§1) To test the individual effects of artesunate and panobinostat, three cervical cancer cell model lines (Caski, SiHa, and HeLa cells) were obtained from the American Type Culture Collection (Manassas, Va.) and maintained in DMEM (Invitrogen) supplemented with 10% fetal bovine serum (Quality Biological, Inc., Gaitherburg, Md.) and penicillin/streptomycin (Invitrogen), in accordance with previous experiments. The cells were split every 3 to 5 days to prevent any of the lines from becoming fully confluent.
(§2) To prepare the cells for treatment, 6000 cells per well were seeded in 96-well plates (for each cell line). Cells were then incubated for a 24-hour period to allow them to adhere to the wells. The cells were then treated with various concentrations of artesunate or panobinostat. For artesunate, the concentrations used for treating each cell type were 80 μM, 40 μM, 20 μM, 10 μM, 5 μM, 2.5 μM, and 1.25 μM. […] Control wells consisted of DMEM, in which the DMSO concentration was the highest drug concentration (0.2% for artesunate, 0.064% for panobinostat) tested. Each concentration was performed in triplicate and the control was conducted in sextuplicate.
(§3) After an incubation time of 72 hours, the […]-GLO® Luminescent Cell Viability Assay (Promega) was conducted. The buffer/enzyme solution was mixed and applied to the cells according to the Promega protocol. Cells were then placed on the orbital shaker for 3 minutes, incubated for 30 minutes, and placed in the luminometer for reading.
(§4) To analyze the data, the background (from only the DMEM media) was subtracted from the luminescence of each well. The program GraphPad Prism 7 was then used to calculate the IC50 values and the cell viability curves for each drug and cell line. All readings were normalized based upon the control values.

HeLa cells [1] = assay: […]-GLO cell viability, single drugs (Example 1); assay type: cell-based; settings: 72 h
Text: as §1, §2, §3, §4

SiHa cells [2] = assay: […]-GLO cell viability, single drugs (Example 1); assay type: cell-based; settings: Homo sapiens, 72 h, read-out: IC50 Confidence Interval
Text: as §1, §2, §3, §4

HeLa cells [3] = assay: […]-GLO cell viability, artesunate/panobinostat dose pairings, CompuSyn analysis (Example 1); assay type: cell-based; parameters: key: fraction surviving, normalized to average of untreated controls
Procedure: To test the combined effects of artesunate and panobinostat, HeLa cells were cultured as previously described. The cells were then seeded in 96-well plates as discussed above. After the 24-hour incubation period, the cells were treated by the following means. […] All possible pairings of each drug concentration were tested. […] All pairings were performed in triplicate and the control was performed in sextuplicate.
After 72 hours of incubation time, the […]-GLO® Luminescent Cell Viability Assay (Promega) was conducted as above. The combination effect of the drugs was analyzed using the CompuSyn program. The background (DMEM only) was subtracted as described previously and all experimental wells were normalized to the average of the controls (as above).

HeLa cells [4] = assay: […]-GLO cell viability, drugs alone and in combination (Example 4); assay type: cell-based; settings: Homo sapiens
Procedure: (§5) The IC50 values were calculated from the cell viability assays for each drug alone and in combination. […] Cells were then incubated for a 24-hour period to allow them to adhere to the wells. […] For the experiments involving artesunate and panobinostat, the concentrations used varied by cell type. […] The buffer/enzyme solution was mixed and applied to the cells according to the Promega protocol. Cells were then placed on the orbital shaker for 2 minutes and then placed in the luminometer for reading. To analyze the data, the background (from only the DMEM media) was subtracted from the luminescence of each well. […] All readings were normalized based upon the control values. […] Analyses were conducted using GraphPad Prism 9. The combination index and dose-reduction index values were calculated based using the summary of the data for all three cell types. […] Dose reduction values are the measure of how many folds the dose of each drug in a synergistic combination may be reduced compared with the doses of each drug alone. […] The values are shown in Table 4 for IC50 and in Table 5 for IC90. […] The methods of analysis are the same as those described above. […] A DMSO experimental stock was made in DMEM as a negative control. […] Analyses were conducted using GraphPad Prism 9. The combination index and dose-reduction index values were calculated based using the summary of the data for all three cell types. […] Dose reduction values are the measure of how many folds the dose of each drug in a synergistic combination may be reduced compared with the doses of each drug alone. […] The values are shown in Table 6 for IC50 and in Table 7 for IC90.

SiHa cells [5] = assay: as above; assay type: cell-based; settings: Homo sapiens
Procedure: as §5

HEC/16E6E7 cells = assay: as above; assay type: cell-based
Procedure: The cell lines were treated with artesunate, vorinostat, and panobinostat individually and in combination. The IC50 values were calculated from the cell viability assays for each drug alone and in combination. […] Cells were then incubated for a 24-hour period to allow them to adhere to the wells. […] For the experiments involving artesunate and panobinostat, the concentrations used varied by cell type. […] After an incubation time of 72 hours, the […]-GLO® Luminescent Cell Viability Assay (Promega) was conducted. The buffer/enzyme solution was mixed and applied to the cells according to the Promega protocol. Cells were then placed on the orbital shaker for 2 minutes and then placed in the luminometer for reading. To analyze the data, the background (from only the DMEM media) was subtracted from the luminescence of each well. […] All readings were normalized based upon the control values. […] Analyses were conducted using GraphPad Prism 9. The combination index and dose-reduction index values were calculated based using the summary of the data for all three cell types. […] Dose reduction values are the measure of how many folds the dose of each drug in a synergistic combination may be reduced compared with the doses of each drug alone. By reducing dose, toxicity is reduced without compromising effect. The values are shown in Table 4 for IC50 and in Table 5 for IC90. […] The methods of analysis are the same as those described above. […] A DMSO experimental stock was made in DMEM as a negative control. […] Analyses were conducted using GraphPad Prism 9. The combination index and dose-reduction index values were calculated based using the summary of the data for all three cell types. […] Dose reduction values are the measure of how many folds the dose of each drug in a synergistic combination may be reduced compared with the doses of each drug alone. By reducing dose, toxicity is reduced without compromising effect. The values are shown in Table 6 for IC50 and in Table 7 for IC90.

HPV precancers = settings: self-administered by patients; published clinical trial [8]; cited from earlier work
[6] = system: HPV 16- and HPV 18-positive cells; settings: in vitro experiments [7]; cited from earlier work
[7] = toxicity to humans; cited from earlier work

With C[C@H]1[C@H](OC(=O)CCC(=O)O)O[C@@H]2O[C@@]3(C)CC[C@H]4[C@H](C)CC[C@@H]1[C@@]24OO3 [artesunate] as the compound, how does the IC50 (Caski cells) read?
The IC50 was 1.74 to 3.14 µM.

And the IC50 (HeLa cells [1]; Homo sapiens, drug alone)?
Its IC50 is ~5 µM.

What about the IC50 (HeLa cells [1]; Homo sapiens, read-out: IC50 Confidence Interval, HeLa, 95% confidence interval) of the same compound?
Its IC50 is 4.33 to 6.07 µM.

What about the IC50 (HeLa cells [1]; drug alone) of the same compound?
The IC50 was 5.13 µM.

And the IC50 (SiHa cells [2])?
Its IC50 is 6.8 to 9.43 µM.

What about the “Effect (fraction of HeLa cells still surviving)” value (HeLa cells [3]; artesunate 1.25 uM alone) of the same compound?
The value was 0.7457.

What about the “Effect (fraction of HeLa cells still surviving)” value (HeLa cells [3]; artesunate 2.5 uM alone) of the same compound?
The value was 0.6418.

And the “Effect (fraction of HeLa cells still surviving)” value (HeLa cells [3]; artesunate 5.0 uM alone)?
The value was 0.5808.

What about the “Effect (fraction of HeLa cells still surviving)” value (HeLa cells [3]; artesunate 10.0 uM alone) of the same compound?
Its value is 0.4287.

And the “Effect (fraction of HeLa cells still surviving)” value (HeLa cells [3]; artesunate 20.0 uM alone)?
Its value is 0.3015.

What about the IC50 (HeLa cells [4]; HeLa, 72 h, read-out: IC50 ART) of the same compound?
The IC50 was 3.7 µM.

What about the IC90 (HeLa cells [4]; HeLa, 72 h, read-out: IC90 ART) of the same compound?
Its IC90 is 14.3 µM.

What about the IC50 (HeLa cells [4]; HeLa, read-out: IC50 ART) of the same compound?
The IC50 was 4.55 µM.

And the IC90 (HeLa cells [4]; HeLa, read-out: IC90 ART)?
Its IC90 is 15.5 µM.

And the IC50 (SiHa cells [5]; SiHa, 72 h, read-out: IC50 ART)?
Its IC50 is 4.83 µM.

And the IC90 (SiHa cells [5]; SiHa, 72 h, read-out: IC90 ART)?
The IC90 was 30 µM.

And the IC50 (SiHa cells [5]; SiHa, read-out: IC50 ART)?
Its IC50 is 6.06 µM.

What about the IC90 (SiHa cells [5]; SiHa, read-out: IC90 ART) of the same compound?
The IC90 was 34.5 µM.

And the IC50 (HEC/16E6E7 cells; 72 h, read-out: IC50 ART)?
Its IC50 is 4.93 µM.

And the IC90 (HEC/16E6E7 cells; 72 h, read-out: IC90 ART)?
Its IC90 is 77.6 µM.

What about the IC50 (HEC/16E6E7 cells; read-out: IC50 ART) of the same compound?
Its IC50 is 6.99 µM.

What about the IC90 (HEC/16E6E7 cells; read-out: IC90 ART) of the same compound?
The IC90 was 158 µM.

And the “cure of HPV precancers” value (HPV precancers)?
The value was 70%.

And the “killing of HPV-positive cells” value [6]?
The value was “selectively kill”.

What about the “safety relative to artemether” value [7] of the same compound?
Its value is “twice as safe as artemether”.

And the “toxicity relative to chloroquinine” value [7]?
Its value is “one-fiftieth as toxic as chloroquinine”.

Which IC50 (Caski cells; Caski, 95% confidence interval) does the source give for Cc1[nH]c2ccccc2c1CCNCc1ccc(/C=C/C(=O)NO)cc1 [panobinostat] here?
Its IC50 is 0.00655 to 0.0125 µM.

What about the IC50 (HeLa cells [1]; Homo sapiens, 95% confidence interval, read-out: IC50 Confidence Interval) of the same compound?
The IC50 was 0.00771 to 0.0132 µM.

What about the IC50 (HeLa cells [1]; Homo sapiens, drug alone, read-out: IC50) of the same compound?
Its IC50 is ~0.01 µM.

What about the IC50 (HeLa cells [1]; drug alone, read-out: IC50) of the same compound?
The IC50 was 0.0101 µM.

What about the IC50 (SiHa cells [2]; 95% confidence interval) of the same compound?
The IC50 was 0.0199 to 0.0257 µM.

What about the “Effect (fraction of HeLa cells still surviving)” value (HeLa cells [3]; panobinostat 2.5 nM alone) of the same compound?
Its value is 0.7864.

And the “Effect (fraction of HeLa cells still surviving)” value (HeLa cells [3]; panobinostat 5.0 nM alone)?
The value was 0.7379.

And the “Effect (fraction of HeLa cells still surviving)” value (HeLa cells [3]; panobinostat 10.0 nM alone)?
The value was 0.6177.

And the “Effect (fraction of HeLa cells still surviving)” value (HeLa cells [3]; panobinostat 20.0 nM alone)?
The value was 0.4359.

And the “Effect (fraction of HeLa cells still surviving)” value (HeLa cells [3]; panobinostat 40.0 nM alone)?
Its value is 0.3322.

And the IC50 (HeLa cells [4]; Hela, PAN alone, 72 h, read-out: IC50 PAN)?
The IC50 was 14.7 µM.

And the IC90 (HeLa cells [4]; Hela, PAN alone, 72 h, read-out: IC90 PAN)?
The IC90 was 60.5 µM.

What about the IC50 (SiHa cells [5]; Siha, PAN alone, 72 h, read-out: IC50 PAN) of the same compound?
The IC50 was 17.8 µM.

What about the IC90 (SiHa cells [5]; Siha, PAN alone, 72 h, read-out: IC90 PAN) of the same compound?
The IC90 was 67.6 µM.

And the IC50 (HEC/16E6E7 cells; HEC/16E6E7, PAN alone, 72 h, read-out: IC50 PAN)?
The IC50 was 25 µM.

What about the IC90 (HEC/16E6E7 cells; HEC/16E6E7, PAN alone, 72 h, read-out: IC90 PAN) of the same compound?
Its IC90 is 115 µM.

With O=C(CCCCCCC(=O)Nc1ccccc1)NO [vorinostat] as the compound, how does the IC90 (HeLa cells [4]; Hela, SAHA alone, read-out: IC90 SAHA) read?
The IC90 was 6.5 µM.

And the IC90 (SiHa cells [5]; Siha, SAHA alone, read-out: IC90 SAHA)?
The IC90 was 13.2 µM.

What about the IC50 (HEC/16E6E7 cells; HEC/16E6E7, SAHA alone, read-out: IC50 SAHA) of the same compound?
The IC50 was 2.31 µM.

What about the IC90 (HEC/16E6E7 cells; HEC/16E6E7, SAHA alone, read-out: IC90 SAHA) of the same compound?
The IC90 was 8.54 µM.
